According to patent US5607850A, “Enzyme from microbial source: phthalyl amidase” (Eli Lilly and Company, priority 1995, dated 1997):
“Also recorded” adds a separate entry of the source. Like-named read-outs stand apart in the source and are kept apart here. Each block holds one compound with its values, some of them ahead of it.

What was measured:
phthalyl amidase [1] = target: T1, phthalyl amidase (Xanthobacter agilis, UniProt P0C2Y0); test: Substrate specificity of phthalyl amidase (Tables 9-11); format: biochemical; conditions: for Relative Activity: 30° C., pH 8.0
T1 sequence (P0C2Y0 2-453): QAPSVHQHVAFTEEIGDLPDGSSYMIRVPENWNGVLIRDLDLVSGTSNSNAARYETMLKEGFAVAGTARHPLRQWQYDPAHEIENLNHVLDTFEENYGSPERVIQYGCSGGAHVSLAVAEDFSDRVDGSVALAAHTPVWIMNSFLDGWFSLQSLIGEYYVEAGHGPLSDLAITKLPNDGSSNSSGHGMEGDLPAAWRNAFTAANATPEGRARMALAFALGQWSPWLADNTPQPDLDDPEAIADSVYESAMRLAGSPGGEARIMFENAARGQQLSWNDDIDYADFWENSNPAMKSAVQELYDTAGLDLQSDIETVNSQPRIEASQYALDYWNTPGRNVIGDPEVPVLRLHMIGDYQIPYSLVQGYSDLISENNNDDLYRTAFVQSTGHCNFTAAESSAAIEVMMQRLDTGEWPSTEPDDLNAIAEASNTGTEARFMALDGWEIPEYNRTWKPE
Description: the activity of phthalyl amidase against 25 compounds was determined. The compounds were divided into beta-lactams (Table 9), phthalyl amides (Table 10), and aromatic ring substituted amides (Table 11). Each reaction mixture (1 ml total volume) contained 2.5 μmol of compound and 0.3 units of enzyme (based on the chromogenic substrate) of the preparative scale purified enzyme, in 50 mM phosphate buffer, pH 8.0. The reactions were conducted at 30° C. Samples of the reaction mixture were taken at various times, and methanol (equal value) was added to stop the reaction. The samples were examined by HPLC to determine the extent of substrate hydrolysis. The amount of compound hydrolyzed was calculated from a standard curve of the test compound. All substrates were stable in buffer at 30° C. and pH 8.0 in the absence of enzyme for 24 hours.

phthalyl amidase [2] = target: T1, phthalyl amidase; test: Influence of effectors and organic solvents on phthalyl amidase activity; format: biochemical; conditions: for % of Control Activity: 1 mM agent
Description: A typical reaction mixture consisted of 1 ml total volume and contained 0.1 mM III, 0.1 μM phthalyl amidase in 50 mM potassium phosphate buffer (pH 5.5-9.0) at 32° C. for 20 minutes. The reactions were stopped by the addition of 1 ml methanol. After removal of precipitate by centrifugation, an aliquot of the supernatant fraction (typically 30 μl) was monitored for the beta-lactam nucleus and phthalic acid by HPLC using a Zorbax C8 column (0.46×15 cm; MacMod Analytical Inc., Chadds Ford, Pa.). The two reaction products were eluted by a mobile phase constructed as continuous mixed gradients from (a) 1% ACN (acetonitrile)/0.2% TFA (trifluoroacetic acid) and (b) 80% ACN/0.2% TFA as follows: 1) 0% (b), 3min; 2) 0-50% (b), 0.5 min; 3) 50-100% (b), 3 min; 4) 100% (b), 2.5 min; 5) 100-1% (b), 0.1 min; and 6) 0% (b), 5 min.
The effect of various agents on the enzymatic activity of phthalyl amidase was determined using standard conditions (see Example 5). All agents were tested at 1 mM final concentration unless otherwise indicated.

Xanthobacter agilis = test: Induction of phthalyl amidase in cultures of Xanthobacter agilis (Table 1); format: cell-based; conditions: for effect on wet weight cell mass: 48 hours growth
Description: Three compounds at different concentrations were added to aerated cultures of the organism growing at 30° C. in Bac MI medium. The compounds tested were phthalate (PAA), phthalyl glycine (PAG), and PMBL. Cells of Xanthobacter agilis were grown with aeration for 24 hours. This vegetative culture was used to inoculate Bac MI medium (50 ml) containing different concentrations of the compounds to be tested. After 48 hours growth under standard conditions, cells were harvested by centrifugation and wet weight of the cells was determined. Crude cell extracts were prepared by lysozyme treatment of the cells as in Example 1. Suspensions were briefly sonicated to break up the viscous suspension. A cell-free supernatant was obtained by centrifugation of the suspension at 14,000 rpm for 15 minutes.
Enzyme activity in cell-free lysates was determined by monitoring conversion of the chromogenic substrate 4-(2'-carboxy-N-benzoyl)amino-2-carboxy-nitrobenzene (II) to 2-nitro-5-amino benzoic acid and phthalic acid, a reaction catalyzed by phthalyl amidase as shown below: [drawing 4]
The assay reaction mixture (1 ml) consisted of 0.3 μmol of the chromogenic substrate (II) and 0.001-0.5 μg of enzyme preparation in 50 mM potassium phosphate buffer, pH 8.0 (buffer A). The enzymatic reaction was conducted at 30° C. for 10 minutes and the appearance of product was monitored at 380 nm (or 430 nm). The amount of substrate hydrolyzed was calculated from a standard curve of the amine product.

phthalyl amidase [3] = target: T1, phthalyl amidase; test: Kinetic parameters for phthalyl amidase; format: biochemical; conditions: Table 12; 32° C., pH 8.2
Description: The kinetic parameters of the enzyme were determined for several representative substrates. Compounds II, XVII, and XVIII were tested using 0.9 μg/ml of enzyme. Compounds III and XI were tested using 5.14 μg/ml of enzyme. Substrate concentrations were between 0 and 25 mM and reaction time was between 2 and 20 minutes, depending on the substrate used. All reactions were run at 32° C. and at pH 8.2. Km is the Michaelis constant for enzyme kinetics, Vmax is the maximal rate of reaction calculated by the Michaelis-Menten equation, and Kcat is the catalytic constant for an enzyme reaction.

[4] = Table 11, aromatic ring substituted amides

Relative Activity (phthalyl amidase [1]; Table 10, phthalyl amides): 100.0
Compound: O=C(O)C1=C(Cl)CCC2C(NC(=O)c3ccccc3C(=O)O)C(=O)N12 (stereo not drawn) [VII]

Compound: [Cl][Mn][Cl] [MnCl2]
% of Control Activity (phthalyl amidase [2]): 84%

Relative Activity (phthalyl amidase [1]; Table 10, phthalyl amides): 40.2
Compound: O=C(O)c1ccccc1C(=O)NCc1ccccc1

acceptance as substrate of the enzyme (phthalyl amidase [1]): acceptable
Relative Activity (phthalyl amidase [1]; [4]): 85.9
Compound: CCCCCCC(C(=O)O)n1cnc(NC(=O)c2ncccc2C(=O)O)c1 (stereo not drawn) [Compound XX]

Compound: O=C(O)CNC(=O)c1ccccc1C(=O)O [PAG, phthalyl glycine]
effect on wet weight cell mass (Xanthobacter agilis): increased the wet weight cell mass
Cell weight (Xanthobacter agilis; addition 1 mg/ml): 0.33 g/50 ml
Total units/mg protein (Xanthobacter agilis; addition 1 mg/ml): 0.35 µmol/min/mg
Units/g/cells (Xanthobacter agilis; addition 1 mg/ml): 1.04 Units/g/cells
Cell weight (Xanthobacter agilis; addition 5 mg/ml): 0.5 g/50 ml
Total units/mg protein (Xanthobacter agilis; addition 5 mg/ml): 4.4 µmol/min/mg
Units/g/cells (Xanthobacter agilis; addition 5 mg/ml): 9.4 Units/g/cells

Relative Activity (phthalyl amidase [1]; Table 10, phthalyl amides): 544.6
Compound: O=C(O)c1ccccc1C(=O)Nc1ccc([N+](=O)[O-])cc1 [VIII]

Compound: O=C(O)c1ccccc1C(=O)O [PAA, phthalate]
Cell weight (Xanthobacter agilis; addition 1 mg/ml): 0.35 g/50 ml
Total units/mg protein (Xanthobacter agilis; addition 1 mg/ml): 1.4 µmol/min/mg
Units/g/cells (Xanthobacter agilis; addition 1 mg/ml): 3.9 Units/g/cells
Cell weight (Xanthobacter agilis; addition 2 mg/ml): 0.47 g/50 ml
Total units/mg protein (Xanthobacter agilis; addition 2 mg/ml): 4.3 µmol/min/mg
Units/g/cells (Xanthobacter agilis; addition 2 mg/ml): 9.3 Units/g/cells
Cell weight (Xanthobacter agilis; addition 5 mg/ml): 0.7 g/50 ml
Total units/mg protein (Xanthobacter agilis; addition 5 mg/ml): 3.7 µmol/min/mg
Units/g/cells (Xanthobacter agilis; addition 5 mg/ml): 5.5 Units/g/cells
Cell weight (Xanthobacter agilis; addition 10 mg/ml): 0.6 g/50 ml
Total units/mg protein (Xanthobacter agilis; addition 10 mg/ml): 12.0 µmol/min/mg
Units/g/cells (Xanthobacter agilis; addition 10 mg/ml): 19.8 Units/g/cells

Relative Activity (phthalyl amidase [1]; Table 10, phthalyl amides): 295.7
Km (phthalyl amidase [3]): 50 µM
Vmax (phthalyl amidase [3]): 5.95 μmol/sec/μmol
Compound: O=C(O)c1ccccc1C(=O)Nc1ccc([N+](=O)[O-])c(C(=O)O)c1 [II, 4-(2'-carboxy-N-benzoyl)amino-2-carboxy-nitrobenzene]

Relative Activity (phthalyl amidase [1]; [4]): 159.00
Km (phthalyl amidase [3]): 170 µM
Vmax (phthalyl amidase [3]): 1.94 μmol/sec/μmol
Compound: CCCCCCC(C(=O)O)n1cnc(NC(=O)c2c(F)cccc2C(=O)O)c1 (stereo not drawn) [XVIII]

effect of solvent on enzyme activity (phthalyl amidase [2]; 10% solvent): least amount of inhibition of the enzyme
Compound: OCC(O)CO [Glycerol]

Relative Activity (phthalyl amidase [1]; [4]): 0
Compound: CCCCCCC(C(=O)O)n1cnc(NC(=O)c2cccc(O)c2)c1 (stereo not drawn) [XXVI]

Relative Activity (phthalyl amidase [1]; [4]): 100.0
Km (phthalyl amidase [3]): 90 µM
Vmax (phthalyl amidase [3]): 1.41 μmol/sec/μmol
Compound: CCCCCCC(C(=O)O)n1cnc(NC(=O)c2ccccc2C(=O)O)c1 (stereo not drawn) [XVII]

Relative Activity (phthalyl amidase [1]; Table 10, phthalyl amides): 9.7
Compound: CC(C)NC(=O)c1ccccc1C(=O)O [XII]

Relative Activity (phthalyl amidase [1]; Table 10, phthalyl amides): 118.5
Compound: COC(=O)[C@H](Cc1ccccc1)NC(=O)[C@H](CC(=O)O)NC(=O)c1ccccc1C(=O)O [XIV]

Relative Activity (phthalyl amidase [1]; Table 9, beta-lactams): 0
Compound: O=C(O)CN1C(=O)C(NC(=O)Cc2ccccc2)C1CCc1ccco1 (stereo not drawn) [V]

Compound: O=C(O)CN1C(=O)C(NC(=O)c2ccccc2C(=O)O)C1CCc1ccco1 (stereo not drawn) [drawing 6]
Relative Activity (phthalyl amidase [1]; Table 9, beta-lactams): 47.9

Relative Activity (phthalyl amidase [1]; [4]): 0
Compound: CCCCCCC(C(=O)O)n1cnc(NC(=O)c2ccc(C(=O)O)cc2)c1 (stereo not drawn) [XXIII]
acceptance as substrate of the enzyme (phthalyl amidase [1]): completely eliminates hydrolytic activity

acceptance as substrate of the enzyme (phthalyl amidase [1]): most active compound found
Relative Activity (phthalyl amidase [1]; Table 10, phthalyl amides): 1027.2
Compound: CCCCCCC(C(=O)O)n1cnc(NC(=O)c2ccccc2C(=O)O)c1 (stereo not drawn) [XIII]

Compound: O=C(O)CN(CCN(CC(=O)O)CC(=O)O)CC(=O)O [EDTA]
effect on enzyme activity (phthalyl amidase [2]): little or no effect on enzyme activity

Compound: NC(=O)C1=CN([C@@H]2O[C@H](COP(=O)(O)OP(=O)(O)OC[C@H]3O[C@@H](n4cnc5c(N)ncnc54)[C@H](OP(=O)(O)O)[C@@H]3O)[C@@H](O)[C@H]2O)C=CC1 [NADPH, reduced form of NADP]
effect on enzyme activity (phthalyl amidase [2]; 1 mM, iodoacetic acid 10 mM): No organic co-factors, such as ATP, NADPH or others, stimulated enzyme activity

effect on enzyme activity (phthalyl amidase [2]; 1 mM, iodoacetic acid 10 mM): little or no effect on enzyme activity
Compound: c1cnc2c(c1)ccc1cccnc12 [Phenanthroiine, phenanthroline]

Relative Activity (phthalyl amidase [1]; [4]): 0
Compound: CCCCCCC(C(=O)O)n1cnc(NC(=O)c2cc(O)cc(O)c2)c1 (stereo not drawn) [XXVII]

Compound: [Cl-].[Cl-].[Mg+2] [MgCl2]
% of Control Activity (phthalyl amidase [2]): 102%

Compound: [Cl][Fe][Cl] [FeCl2]
% of Control Activity (phthalyl amidase [2]): 102%

Compound: [Cl-].[Cl-].[Co+2] [CoCl2]
% of Control Activity (phthalyl amidase [2]): 101%

Compound: [Cl][Ni][Cl] [NiCl2]
% of Control Activity (phthalyl amidase [2]): 94%

Relative Activity (phthalyl amidase [1]; [4]): 0
Compound: CCCCCCC(C(=O)O)n1cnc(NC(=O)c2ccccc2)c1 (stereo not drawn) [XXVIII]

Compound: [Cl][Cu][Cl] [CuCl2]
% of Control Activity (phthalyl amidase [2]): 36%
effect on enzyme activity (phthalyl amidase [2]; 1 mM, iodoacetic acid 10 mM, listed as Cu^++): exert inhibitory activity; also recorded: significantly inhibited the enzyme
effect on enzyme activity (phthalyl amidase [2]; 1 mM, iodoacetic acid 10 mM, listed as copper ions): significantly reduced phthalyl amidase activity

acceptance as substrate of the enzyme (phthalyl amidase [1]): acceptable
Relative Activity (phthalyl amidase [1]; [4]): 1.3
Compound: CCCCCCC(C(=O)O)n1cnc(NC(=O)c2cccc(O)c2C(=O)O)c1 (stereo not drawn) [XXI]

Compound: [Ca+2].[Cl-].[Cl-] [CaCl2]
% of Control Activity (phthalyl amidase [2]): 89%

Compound: O=C(O)c1cc[c]([Hg][OH])cc1 [p-HMB, parahydroxy mercuric benzoate]
% of Control Activity (phthalyl amidase [2]): 65%
effect on enzyme activity (phthalyl amidase [2]; 1 mM, iodoacetic acid 10 mM): exert inhibitory activity; also recorded: significantly reduced phthalyl amidase activity; also recorded: significantly inhibited the enzyme

Relative Activity (phthalyl amidase [1]; Table 10, phthalyl amides): 90.2
Compound: CC(C)CC(NC(=O)c1ccccc1C(=O)O)C(=O)O (racemic) [XVI]

Compound: [Cl][Fe]([Cl])[Cl] [FeCl3]
% of Control Activity (phthalyl amidase [2]): 96%

Relative Activity (phthalyl amidase [1]; Table 10, phthalyl amides): 220.1
Compound: CSCCC(NC(=O)c1ccccc1C(=O)O)C(=O)O (racemic) [XV]

Compound: O=C(O)CN1C(=O)C(NC(=O)c2ccccc2C(=O)O)C1CCc1ccco1 (stereo not drawn) [PMBL, phthalyl monocyclic beta-lactam]
effect on wet weight cell mass (Xanthobacter agilis): had no effect
Cell weight (Xanthobacter agilis; addition 1 mg/ml): 0.35 g/50 ml
Total units/mg protein (Xanthobacter agilis; addition 1 mg/ml): 0.28 µmol/min/mg
Units/g/cells (Xanthobacter agilis; addition 1 mg/ml): 0.79 Units/g/cells
Cell weight (Xanthobacter agilis; addition 5 mg/ml): 0.24 g/50 ml
Total units/mg protein (Xanthobacter agilis; addition 5 mg/ml): 2.0 µmol/min/mg
Units/g/cells (Xanthobacter agilis; addition 5 mg/ml): 8.1 Units/g/cells

Relative Activity (phthalyl amidase [1]; [4]): 0
Compound: CCCCCCC(C(=O)O)n1cnc(NC(=O)c2ccccc2O)c1 (stereo not drawn) [XXV]

Compound: Nc1ncnc2c1ncn2[C@@H]1O[C@H](COP(=O)(O)OP(=O)(O)OP(=O)(O)O)[C@@H](O)[C@H]1O [ATP, adenosine 5triphosphate]
effect on enzyme activity (phthalyl amidase [2]; 1 mM, iodoacetic acid 10 mM): No organic co-factors, such as ATP, NADPH or others, stimulated enzyme activity

Compound: O=C(O)CI [Iodoacetate]
effect on enzyme activity (phthalyl amidase [2]): exert inhibitory activity; also recorded: significantly reduced phthalyl amidase activity; also recorded: significantly inhibited the enzyme

Compound: [Cl-].[Cl-].[Zn+2] [ZnCl2]
% of Control Activity (phthalyl amidase [2]): 100%

Compound: O=C(O)CNC(=O)c1ccccc1C(=O)O [XI]
Relative Activity (phthalyl amidase [1]; Table 10, phthalyl amides): 31.8
Km (phthalyl amidase [3]): 140 µM
Vmax (phthalyl amidase [3]): 0.27 μmol/sec/μmol

Relative Activity (phthalyl amidase [1]; [4]): 0
Compound: CCCCCCC(C(=O)O)n1cnc(NC(=O)c2cccc(C(=O)O)c2)c1 (stereo not drawn) [XXIV]
acceptance as substrate of the enzyme (phthalyl amidase [1]): completely eliminates hydrolytic activity

Relative Activity (phthalyl amidase [1]; Table 9, beta-lactams): 0
Compound: O=C(O)CN1C(=O)C(NC(=O)c2ccccc2)C1CCc1ccco1 (stereo not drawn) [VI]

Relative Activity (phthalyl amidase [1]; Table 9, beta-lactams): 0
Compound: O=C(O)CN1C(=O)C(NC(=O)COc2ccccc2)C1CCc1ccco1 (stereo not drawn) [IV]

acceptance as substrate of the enzyme (phthalyl amidase [1]): Low levels of hydrolysis
Relative Activity (phthalyl amidase [1]; [4]): 0.2
Compound: CCCCCCC(C(=O)O)n1cnc(NC(=O)c2ccccc2-c2nn[nH]n2)c1 (stereo not drawn) [XXII]
